The source of these data is patent publication US9063163B2, “Lyophilised dabigatran” (Boehringer Ingelheim International GmbH, priority 2009, dated 2015).

Series [1] in a line: Solubility of dabigatran (descriptive). In kind it is physicochemical.
The nature of series [2]: Hygroscopicity of dabigatran (descriptive). In kind it is physicochemical. As to conditions: leads to formation of different hydrated forms.

For `[H]/N=C(/N)c1ccc(NCc2nc3cc(C(=O)N(CCC(=O)O)c4ccccn4)ccc3n2C)cc1` [dabigatran], the Solubility entry in series [1] is reported as “sparingly soluble”. Besides, the Hygroscopicity entry in series [2] is on record as “hygroscopic”.
